# In PubChem BioAssay (NCI):
#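 Dose response: 5 concentrations. Exposure: 48 h. Format: 96-well plates. Endpoint: linear interpolation; highest concentration if not reached. The concentration for full growth arrest is given as TGI.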
# Key:
# Experiment in all cases: NCI tumour cell line growth inhibition, 48 h
# P388 leukemia = tested on: P388 leukemia
# SN12K1 renal = tested on: SN12K1 renal
# SNB-78 CNS = tested on: SNB-78 CNS
# XF 498 CNS = tested on: XF 498 CNS
# MDA-N = tested on: MDA-N
# BT-549 breast = tested on: BT-549 breast
# P388/ADR leukemia = tested on: P388/ADR leukemia
# RXF-631 renal = tested on: RXF-631 renal
SMILES,TGI (P388 leukemia) [µM],TGI (SN12K1 renal) [µM],TGI (SNB-78 CNS) [µM],TGI (XF 498 CNS) [µM],TGI (MDA-N) [µM],TGI (BT-549 breast) [µM],TGI (P388/ADR leukemia) [µM],TGI (RXF-631 renal) [µM]
COc1ccc(OCC(C)(C)O)cc1,> 100,> 100,> 100,> 100,–,–,–,–
COc1ccc2c(c1)c(=O)c1c(NCCCN(C)C)ccc3ncn2c31,–,–,23.5,18.9,18.8,32,–,–
CCOC(=O)/C=C/c1c[nH]c(=O)[nH]c1=O,> 75,> 75,> 75,> 75,–,–,> 75,–
c1ccc(N2N=C3N(c4ccccc4)C2N3c2ccccc2)cc1,–,–,–,–,41.8,> 100,–,–
COc1ccc(-c2c3c(nc4[nH]c(=S)[nH]c(=S)c24)CCCC3)cc1OC,–,–,–,–,> 100,> 100,–,–
CCOC(=O)C1=C(C)N(C2OC(COC(C)=O)C(OC(C)=O)C(OC(C)=O)C2OC(C)=O)C(=O)NC1c1ccccc1 (centres undefined),–,–,> 100,–,–,–,–,> 100
CC(c1ccccc1)C(O)S(=O)(=O)O (centres undefined),–,–,> 100,> 100,–,–,–,> 100
CCCCn1c(C)c2c(c1C)C(=O)N(CCN1CCN(c3ccccc3Cl)CC1)C2=O,–,–,–,–,> 100,41.7,–,–
